For assay [1], the system named is CSS.1-42 (DNA, aptamer) GACGACGCCCGCATGTTCCATGGATAGTCTTGACTAGTCGTC
Briefly: SGI fluorescence. Conditions: 100 mM NaCl, 10 mM MgCl2; 20 mM HEPES pH 7.5; 0.1× SGI, 1 μM aptamer.

Assay [2] deals with DNA1 (DNA, other) ACGACACGGAGGCTTAGTTTGCTAAATGGTCATGTCGT
Kind of assay: SGI fluorescence. The conditions noted are these: 500 mM NaCl, 20 mM MgCl2; 50 mM Tris pH 7.6; 0.02× SGI, 200 nM DNA1.

The subject of assay [3] is CSS.1-42 (DNA, aptamer) GACGACGCCCGCATGTTCCATGGATAGTCTTGACTAGTCGTC
Briefly: SGI fluorescence increase, microplate. The conditions noted are these: 100 mM NaCl, 10 mM MgCl2; 20 mM HEPES pH 7.5; 0.1× SGI, 1 μM aptamer; with and without 0.01% Triton X-100; up to 6 μM.

In assay [4] the test system is Ade Apt (adenosine aptamer, WT) (DNA, aptamer) ACCTGGGGGAGTATTGCGGAGGAAGGT
Kind of assay: ThT fluorescence. The conditions noted are these: 50 mM NaCl, 4 mM MgCl2; 10 mM HEPES pH 7.6; 2 μM ThT, 100 nM aptamer.

Assay [5] shares this test system. Kind of assay: ThT displacement fluorescence, quartz cuvette. Conditions: 50 mM NaCl, 4 mM MgCl2, 10 mM HEPES pH 7.6, 20 °C.
Assay [6] has as its system Ade Apt M2 (DNA, aptamer) ACCTGGGGTAGTATTGCGGAGTAAGGT
Briefly: ThT displacement fluorescence, quartz cuvette. Conditions: 50 mM NaCl, 4 mM MgCl2; 10 mM HEPES pH 7.6, 20 °C; 2 μM ThT; up to 500 μM.

Consider `CCCN(CCCN(C)C)c1cc(C=C2Sc3ccccc3N2C)c2ccccc2[n+]1-c1ccccc1`, for which the binding entry in assay [1] was “weak”; in assay [2] it was “yes”. `C[C@]12CCC(=O)C=C1CC[C@@H]1[C@@H]2[C@@H](O)C[C@@]2(C)[C@H]1CC[C@]2(O)C(=O)CO`: the binding result in assay [3] is reported as “yes”. For the compound `Cc1ccc2c(c1)sc(-c1ccc(N(C)C)cc1)[n+]2C`, in assay [4], the binding entry is reported as “yes”. For the compound `Nc1nc2c(ncn2[C@@H]2O[C@H](CO)[C@@H](O)[C@H]2O)c(=O)[nH]1`, in assay [5] (2 μM ThT, up to 500 μM), the binding entry is “no”.

`Nc1ncnc2c1ncn2[C@@H]1O[C@H](CO)[C@@H](O)[C@H]1O`: the Kd in assay [5] (2 μM ThT displaced, 100 nM aptamer, 10 min equilibration, apparent) turned out to be 16.6 ± 8.4 µM. In addition, the binding result in assay [6] was “no”.

Values taken from article PMC10135756 (2023).
